“And” between values parts separate entries of the source, which are not always exact repeats. Equal values may be shown once.
B1: AM3-523: affinity matured CXCR4 i-body, SEQ ID NO: 56 (protein)
chain: LQVDIVPSQGEISVGESKFFLCQVAGSGSHMRISWFSPNGEKLTPNQQRISVVWNDDSSSTLTIYNANIDDAGIYKCVVWVGGYRHRALVLGEATVNVKIFQ
modifications: protein sequence encoding AM3-523

What was measured:
[1] = Laser induced choroidal neovascularisation model; format: in vivo, mouse
Method: The laser induced choroidal neovascularisation (CNV) is a well characterised and accepted model of choroidal neovascularisation (Fletcher E L et al. (2011) Prog Mol Biol Transl Sci 100:211-286). It is also a rapid method for determining the efficacy of potential treatments that target angiogenesis and fibrosis. Briefly, up to four laser spots are applied to the posterior eye using a continuous wave photocoagulation laser ([…] diode). The laser energy is high enough to create a break in Bruch's membrane. During the following 7-14 days, growth of blood vessels from the choroid into the retina occurs, and is quantified either immuocytochemically, or using fluorescein angiography.
Mice were treated as below: • Group 1 (n=10): laser both eyes-vehicle in one eye; i-body in the other • Group 2 (n=10): Laser one eye (no i-body); other eye unlasered. • The i-body drug was injected intravitreally in 1 μl volume at a concentration up to 20 mg/ml.
The expression of genes associated with angiogenesis and fibrosis was examined. Total RNA was isolated from the retina and RPE/choroidal samples using commercial spin columns (RNeasy, Qiagen, Valencia Calif.). A PCR gene array was used to assess the expression of 84 genes involved angiogenesis or fibrosis (Qiagen). Briefly, total RNA samples from untreated, laser treated eyes and untreated fellow eyes (n=9 each group, each 25 ng) were pooled within their respective treatment groups (3 independent experiments containing 3 pooled samples), reversed transcribed (RT2 first strand, Qiagen) and then underwent pre-amplification of the cDNA target templates (RT2 pre-AMP, Qiagen). Samples were added to a commercial mastermix (RT2 SYBR green mastermix, Qiagen) and amplified for 40 cycles (ABI 7900HT, Life Technologies, Grand Island N.Y.). Three independent arrays were performed for each treatment group. The data were analysed using delata delta Ct (ΔΔCt), expressed as fold change and regulation assessed using an unpaired t-test.

human fibrocytes = experiment: Binding to human fibrocytes (confocal microscopy); format: cell-based; conditions: CD45 positive cells of PBMCs
Method: PBMCs were smeared on a microscope slide and fixed with acetone at 4° C. for 10 minutes. Following three times washing and rehydration with PBS the slides were incubated with mouse antiFLAG 1:100 dilution over night at 4° C. After washing the slides were incubated with Goat anti-mouse Alex Fluor 568 (to detect i-body by binding anti FLAG) at room temperature for 1 hour. The slides were then washed and incubated with Mouse anti-CD-45 FITC labeled antibody over night at 4° C. After further washing the slides were and mounted with ProLong Gold antifade mountant containing DAPI. Images were captured by using Nikon A1 confocal microscope.

[2] = tested on: white blood cells, LSK and LSKSLAM cells in peripheral blood; experiment: Stem cell mobilisation in mice after i.v. injection; format: in vivo, mouse; conditions: 1 and 3 hours after i.v. injection, compared to AMD3100
Method: After 1 and 3 hours, mice were euthanized and peripheral blood (PB) harvested. Spleens were harvested and weighed to assess for splenomegaly (enlargement of the spleen). Samples were lysed to remove red blood cells and 4000 cells plated for LPP (low-proliferative potential) and CFU-HPP (colony forming unit-high proliferative potential) colonies (colony counting 7 days post-plating). The remaining cells were stained with an antibody cocktail to assess lineage-committed, stem and progenitor cell content. Flow cytometric analysis was used to calculate numbers of lineage-committed cells, haemopoietic stem and progenitor cells as well as enriched HSC per volume of PB.

[3] = tested on: normal and IPF lung fibroblasts; experiment: Wound healing invasion assay of lung fibroblasts; format: cell-based, human; conditions: 130 μg/ml
In short: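 Normal and slow- or rapid-progressing IPF lung fibroblasts were plated overnight on basement membrane extract (50 μg/ml coating), then overlaid with BME polymerised at 37° C for 15 min. Wound invasion was imaged every 2 h for about 50 h and quantified by image analysis.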

CXCR4 = CXCR4 (Homo sapiens, UniProt P61073); experiment: Calcium flux assay (Screen Quest Fluo-8, FLIPR) in antagonist mode; format: cell-based; conditions: SDF-1 at EC80
Method: Inhibition of Ca2+ influx by controls or i-bodies (IC50) was then determined.
Mammalian cells stably expressing human CXCR4 receptor were produced in-house by Multispan, Inc (catalog no. C1004-1). Control agonist used was SDF-1 (Peprotech, Cat #300-28A).
Cells were seeded in 384-well plate at an appropriate density and cultured overnight. Calcium assay was conducted according to the manufacturer's protocols. The calcium dye loading buffer was added to the cells and incubated for one hour at 37° C. Calcium flux was monitored for 120 seconds with compound injected into the wells at 19th second. In antagonist mode, carrier or compounds were preincubated with the cells for 30 minutes before calcium flux measurement with the control agonist at EC80 concentration obtained from dose-response curve.

[4] = molecular target: T1, human CXCR4 (CXCR4 positive lipoparticles) (Homo sapiens, UniProt P61073); experiment: Biacore SPR kinetic binding to immobilised CXCR4 lipoparticles
T1 construct: purchased Integral Molecular LEV-101B

[5] = intravitreal, 1 μl up to 20 mg/ml
[6] = CXCR4 expressed on lipoparticles (Table 4)

T1 sequence (P61073 whole entry): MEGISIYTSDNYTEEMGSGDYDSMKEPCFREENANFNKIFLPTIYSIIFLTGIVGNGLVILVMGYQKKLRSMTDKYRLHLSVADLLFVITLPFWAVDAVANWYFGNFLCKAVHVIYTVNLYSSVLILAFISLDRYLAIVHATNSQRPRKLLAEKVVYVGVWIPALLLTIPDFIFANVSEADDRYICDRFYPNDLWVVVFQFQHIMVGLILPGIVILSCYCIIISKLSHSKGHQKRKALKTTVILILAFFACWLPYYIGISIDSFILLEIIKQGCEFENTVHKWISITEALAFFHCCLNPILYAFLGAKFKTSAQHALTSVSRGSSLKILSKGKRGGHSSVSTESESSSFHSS
CXCR4, sequence (P61073 whole entry): as above

Row | Molecule | pro-fibrotic gene expression in treated eyes ([1]; PCR gene array) | contraction of the lasered retinal regions [1, 5] | pathological angiogenesis / lesion size [1, 5] | binding to human fibrocytes (human fibrocytes) | mobilisation of white blood cells [2] | invasion of normal lung fibroblasts [3] | migration of IPF lung fibroblasts ([3]; slow and rapid IPF progressors) | Calcium Inhibition EC50 (CXCR4) | Kd [4, 6] | dissociation rate constant (kd) [4, 6] | dissociation rate constant (kd) ([4]; off-rate, CXCR4 expressed on lipoparticles (Table 3))
1 | AM3-114: affinity matured CXCR4 i-body, SEQ ID NO: 40 | extensive down regulation of pro fibrotic genes | significant reduction in the contraction | reduction of the lesion size | capable of binding to human fibrocytes | No mobilisation | neither i-body had any effect | specifically inhibited migration |  |  |  | 
2 | B1 |  |  |  |  | No mobilisation |  |  | uM | 9.47 nM and 8.53 nM | 9150 M⁻¹ s⁻¹ and 8610 M⁻¹ s⁻¹ | 0.00998

Reference: US11142588B2, “Polypeptides which bind C-X-C chemokine receptor type 4 (CXCR4) and methods of treating or reducing the risk of fibrosis and cancer” (AdAlta Limited, priority 2015, dated 2021)
